Assay results taken from patent US20150274719A1, “AMINO-SUBSTITUTED IMIDAZO[1,2-A]PYRIDINECARBOXAMIDES AND THEIR USE” (BAYER PHARMA AKTIENGESELLSCHAFT, priority 2012, published 2015).

Target: T1, recombinant guanylate cyclase reporter cell line (Rattus norvegicus, UniProt P19686+P20595)
T1 construct: expressed in transfected cells; host or cells: recombinant reporter cell line
T1 sequence (P19686 1-690): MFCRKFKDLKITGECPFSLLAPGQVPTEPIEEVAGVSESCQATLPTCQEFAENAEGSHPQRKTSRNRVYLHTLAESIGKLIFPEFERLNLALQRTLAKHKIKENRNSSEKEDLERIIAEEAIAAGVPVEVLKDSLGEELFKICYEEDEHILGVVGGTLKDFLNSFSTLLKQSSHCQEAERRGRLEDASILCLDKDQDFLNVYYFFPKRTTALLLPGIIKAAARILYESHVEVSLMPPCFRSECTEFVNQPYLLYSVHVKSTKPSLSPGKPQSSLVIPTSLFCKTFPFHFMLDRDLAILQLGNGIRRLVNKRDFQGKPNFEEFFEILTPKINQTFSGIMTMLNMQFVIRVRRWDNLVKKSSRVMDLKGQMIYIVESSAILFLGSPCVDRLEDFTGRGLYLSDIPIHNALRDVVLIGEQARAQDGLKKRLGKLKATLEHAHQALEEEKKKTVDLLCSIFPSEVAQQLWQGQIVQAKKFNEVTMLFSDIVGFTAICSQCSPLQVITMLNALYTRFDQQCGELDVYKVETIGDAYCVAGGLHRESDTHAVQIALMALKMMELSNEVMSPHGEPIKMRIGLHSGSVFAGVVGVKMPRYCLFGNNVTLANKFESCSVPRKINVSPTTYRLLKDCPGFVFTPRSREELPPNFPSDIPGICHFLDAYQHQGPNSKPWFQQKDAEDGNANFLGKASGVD
T1 sequence (P20595 1-619): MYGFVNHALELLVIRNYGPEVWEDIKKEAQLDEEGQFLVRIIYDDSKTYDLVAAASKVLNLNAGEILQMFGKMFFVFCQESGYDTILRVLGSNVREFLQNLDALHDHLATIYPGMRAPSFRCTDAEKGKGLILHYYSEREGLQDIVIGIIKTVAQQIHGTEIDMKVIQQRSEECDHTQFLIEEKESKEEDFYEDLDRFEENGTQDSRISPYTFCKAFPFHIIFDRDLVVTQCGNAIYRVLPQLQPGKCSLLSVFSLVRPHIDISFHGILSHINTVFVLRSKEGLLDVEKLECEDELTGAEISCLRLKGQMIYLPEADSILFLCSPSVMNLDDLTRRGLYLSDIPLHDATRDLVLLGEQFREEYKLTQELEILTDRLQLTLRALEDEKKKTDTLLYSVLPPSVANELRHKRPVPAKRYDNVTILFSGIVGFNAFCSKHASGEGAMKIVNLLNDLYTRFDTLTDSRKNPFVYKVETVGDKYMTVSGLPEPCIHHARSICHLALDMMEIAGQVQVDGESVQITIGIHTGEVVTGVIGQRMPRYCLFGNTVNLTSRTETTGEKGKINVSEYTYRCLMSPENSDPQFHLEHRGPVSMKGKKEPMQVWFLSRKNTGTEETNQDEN
Assay: Action on recombinant guanylate cyclase reporter cell line
Assay type: cell-based
Details: in some cases mean values from individual determinations
Summary of the method: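 Cellular activity was measured in a reporter cell line expressing recombinant guanylate cyclase. Values are given as MEC, the minimal effective concentration, and some are means of individual determinations.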

Row | Compound | MEC (minimal effective concentration) [µM]
1 | Cc1nc2c(OCc3c(F)cccc3F)cccn2c1C(=O)NC(CN1CCOCC1)c1ccccc1 (single isomer, unassigned; ent-8) [Example 182, ent-8-[(2,6-Difluorobenzyl)oxy]-2-methyl-N-[2-(morpholin-4-yl)-1-phenylethyl]imidazo[1,2-a]-pyridine-3-carboxamide] | 3.00
2 | Cc1nc2c(OCc3c(F)cccc3F)cccn2c1C(=O)NC(CN1CCOCC1)c1ccccc1 (single isomer, unassigned; ent-8) [Example 183, ent-8-[(2,6-Difluorobenzyl)oxy]-2-methyl-N-[2-(morpholin-4-yl)-1-phenylethyl]imidazo[1,2-a]-pyridine-3-carboxamide] | 1.00
3 | Cc1cc(OCc2c(F)cccc2F)c2nc(C)c(C(=O)NCC(C)N3CCOCC3)n2c1 (single isomer, unassigned; ent-8) [Example 186, ent-8-[(2,6-Difluorobenzyl)oxy]-2,6-dimethyl-N-[2-(morpholin-4-yl)propyl]imidazo[1,2-a]-pyridine-3-carboxamide] | 0.30
4 | Cc1cc(OCc2c(F)cccc2F)c2nc(C)c(C(=O)NCC(C)N3CCOCC3)n2c1 (single isomer, unassigned; ent-8) [Example 187, ent-8-[(2,6-Difluorobenzyl)oxy]-2,6-dimethyl-N-[2-(morpholin-4-yl)propyl]imidazo[1,2-a]-pyridine-3-carboxamide] | 0.30
5 | Cc1nc2c(OCc3c(F)cccc3F)cccn2c1C(=O)NCC(C(C)C)N(C)C (single isomer, unassigned; ent-8) [Example 188, ent-8-[(2,6-Difluorobenzyl)oxy]-N-[2-(dimethylamino)-3-methylbutyl]-2-methylimidazo[1,2-a]-pyridine-3-carboxamide] | 1.00
6 | Cc1nc2c(OCc3c(F)cccc3F)cccn2c1C(=O)NCC(C(C)C)N(C)C (single isomer, unassigned; ent-8) [Example 189, ent-8-[(2,6-Difluorobenzyl)oxy]-N-[2-(dimethylamino)-3-methylbutyl]-2-methylimidazo[1,2-a]-pyridine-3-carboxamide] | 3.00
7 | Cc1nc2c(OCc3c(F)cccc3F)cccn2c1C(=O)NC(CNCC(F)(F)F)c1ccc(F)c(F)c1 (single isomer, unassigned; ent-8) [Example 222, ent-8-[(2,6-Difluorobenzyl)oxy]-N-{1-(3,4-difluorophenyl)-2-[(2,2,2-trifluoroethyl)amino]ethyl}-2-methylimidazo[1,2-a]pyridine-3-carboxamide] | 0.30
8 | CCC1CC(NC(=O)c2c(C)nc3c(OCc4c(F)cccc4F)cc(C)cn23)c2nc(C(F)(F)F)ccc2N1 (single isomer, unassigned; ent-8) [Example 325, ent-8-[(2,6-Difluorobenzyl)oxy]-N-[2-ethyl-6-(trifluoromethyl)-1,2,3,4-tetrahydro-1,5-naphthyridin-4-yl]-2,6-dimethylimidazo[1,2-a]pyridine-3-carboxamide] | 0.30
9 | Cc1cc(OCc2c(F)cccc2F)c2nc(C)c(C(=O)NC3CC(C)Nc4ccc(C(F)(F)F)nc43)n2c1 (single isomer, unassigned; ent-8) [Example 326, ent-8-[(2,6-Difluorobenzyl)oxy]-2,6-dimethyl-N-[2-methyl-6-(trifluoromethyl)-1,2,3,4-tetrahydro-1,5-naphthyridin-4-yl]imidazo[1,2-a]pyridine-3-carboxamide] | 0.30
10 | Cc1nc2c(OCc3c(F)cccc3F)cccn2c1C(=O)NC1CC2CCCC(C1)N2C1CC1 (centres unmarked) [Example 1, N-(9-Cyclopropyl-9-azabicyclo[3.3.1]non-3-yl)-8-[(2,6-difluorobenzyl)oxy]-2-methylimidazo[1,2-a]pyridine-3-carboxamide] | 0.10
11 | Cc1nc2c(OCc3c(F)cccc3F)cccn2c1C(=O)NC(CN)c1ccc(F)cc1F (stereo not drawn) [Example 21, ent-N-[2-Amino-1-(2,4-difluorophenyl)ethyl]-8-[(2,6-difluorobenzyl)oxy]-2-methylimidazo[1,2-a]-pyridine-3-carboxamide] | 0.30
12 | Cc1nc2c(OCc3c(F)cccc3F)cc(Cl)cn2c1C(=O)NC(C)CN (stereo not drawn) [Example 22, ent-N-(1-aminopropan-2-yl)-6-chloro-8-[(2,6-difluorobenzyl)oxy]-2-methylimidazo[1,2-a]-pyridine-3-carboxamide] | 0.30
13 | Cc1nc2c(OCc3c(F)cccc3F)cc(Cl)cn2c1C(=O)NC(C)(C)CN [Example 24, N-(1-amino-2-methylpropan-2-yl)-6-chloro-8-[(2,6-difluorobenzyl)oxy]-2-methylimidazo[1,2-a]pyridine-3-carboxamide] | 0.65
14 | Cc1cc(OCc2c(F)cccc2F)c2nc(C)c(C(=O)NC(C)(C)CN)n2c1 [Example 26, N-(1-amino-2-methylpropan-2-yl)-8-[(2,6-difluorobenzyl)oxy]-2,6-dimethylimidazo[1,2-a]-pyridine-3-carboxamide] | 0.30
15 | Cc1nc2c(OCc3c(F)cccc3F)cccn2c1C(=O)NC1CC2CCCC(C1)N2 (centres unmarked) [Example 27, N-(9-azabicyclo[3.3.1]non-3-yl)-8-[(2,6-difluorobenzyl)oxy]-2-methylimidazo[1,2-a]-pyridine-3-carboxamide] | 1.00
16 | Cc1nc2c(OCc3c(F)cccc3F)cc(Cl)cn2c1C(=O)NCCC1(N)CCCCC1 [Example 33, N-[2-(1-Aminocyclohexyl)ethyl]-6-chloro-8-[(2,6-difluorobenzyl)oxy]-2-methylimidazo[1,2-a]-pyridine-3-carboxamide] | 0.30
17 | CC[C@@H](N)CNC(=O)c1c(C)nc2c(OCc3c(F)cccc3F)cc(Cl)cn12 [Example 35, ent-N-[(2R)-2-aminobutyl]-6-chloro-8-[(2,6-difluorobenzyl)oxy]-2-methyl-imidazo[1,2-a]-pyridine-3-carboxamide] | 1.00
18 | Cc1nc2c(OCc3c(F)cccc3F)cc(Cl)cn2c1C(=O)NCCN [Example 36, N-(2-aminoethyl)-6-chloro-8-[(2,6-difluorobenzyl)oxy]-2-methylimidazo[1,2-a]-pyridine-3-carboxamide] | 1.00
19 | Cc1nc2c(OCc3c(F)cccc3F)cc(Cl)cn2c1C(=O)NCCCN [Example 37, N-(3-aminopropyl)-6-chloro-8-[(2,6-difluorobenzyl)oxy]-2-methylimidazo[1,2-a]pyridine-3-carboxamide] | 1.00
20 | Cc1nc2c(OCc3c(F)cccc3F)cccn2c1C(=O)NCC1(N)CC1 [Example 38, N-[(1-aminocyclopropyl)methyl]-8-[(2,6-difluorobenzyl)oxy]-2-methylimidazo[1,2-a]-pyridine-3-carboxamide] | 0.40
21 | Cc1nc2c(OCc3c(F)cccc3F)cc(Cl)cn2c1C(=O)NCC1(N)CC1 [Example 39, N-[(1-aminocyclopropyl)methyl]-6-chloro-8-[(2,6-difluorobenzyl)oxy]-2-methylimidazo[1,2-a]pyridine-3-carboxamide] | 0.10
22 | Cc1cc(OCc2c(F)cccc2F)c2nc(C)c(C(=O)NCC3(N)CC3)n2c1 [Example 40, N-[(1-aminocyclopropyl)methyl]-8-[(2,6-difluorobenzyl)oxy]-2,6-dimethylimidazo[1,2-a]-pyridine-3-carboxamide] | 0.10
23 | Cc1nc2c(OCc3c(F)cccc3F)cccn2c1C(=O)NCC1(N)CCCC1 [Example 41, N-[(1-aminocyclopentyl)methyl]-8-[(2,6-difluorobenzyl)oxy]-2-methylimidazo[1,2-a]-pyridine-3-carboxamide] | 0.30
